For 17 compounds, IC50 and melting point results are on record in patent US8110585B2, “Bicyclic compound and pharmaceutical use thereof” (Takeda Pharmaceutical Company Limited, priority 2007, dated 2012).

Data set [1] concerns the target T1, human melatonin 1 receptors (human MT1 receptors) (Homo sapiens, UniProt P48039).
T1 construct: expressed in transfected cells; membrane fraction
Description: Melatonin receptor binding inhibitory test, 2-[125I] Iodomelatonin, MT1. Conditions: membrane fraction of CHO-hMelR7 cells, 25° C. for 2.5 hr, read-out: binding inhibitory activity as IC50 value for MT1. How it is done:
(§1) Melatonin Receptor Binding Inhibitory Test
(1) Preparation of CHO-hMelR7 Cells expressing Human Melatonin 1 Receptors
A cDNA fragment (SEQ ID NO: 1) encoding full-length of human melatonin 1 receptors (human MT1 receptors) was incorporated into expression vector pAKKO-111H (former name pAKKO1.11H; Biochim Biophys Acta. Vol. 1219(2), pp. 251-259, 1994) to give plasmid pAKKO-hMelR7 for animal cell expression. CHO/dhfr-cells (ATCC, #CRL-9096) were plated at a concentration of 0.3×10^6 cells/dish in a 6 cm culture dish (Becton Dickinson), and cultured under the conditions of 37° C., 5% CO2 for 48 hr. The cells were transfected with pAKKO-hMelR7 plasmid DNA (5 μg) using Cellphect Transfection Kit (Amersham, #27-9268-01). The transfected cells were cultured in Dulbecco's modified Eagle medium (DMEM) (Sigma, #D6046) containing 10% dialyzed FBS (Biowest, #S180D), 1× Non-Essential Amino Acid (Invitrogen, #11140-050) and 50 μg/mL Gentamycin (Invitrogen, #15750-060), and the cell line that stably expressed the plasmid gene was selected. By a receptor binding assay using 2-[^125I] Iodomelatonin, CHO-hMelR7 cell line showing specific binding of 2-[^125I] Iodomelatonin was selected from the obtained clones.
(§2) (3) Preparation of Cellular Membrane Fraction of CHO Cell (CHO-hMelR7 and CHO-hMT2) Stably Expressing Human MT1 and MT2 Receptors
(§3) CHO-hMelR7 and CHO-hMT2 cells were plated using Cellfactory (Nunc, #170009) under the conditions of 1×10^8 cells/2000 mL/flask. The cells were grown to confluent, and recovered by the following method. As the medium for CHO-hMelR7 and CHO-hMT2, MEM a containing 10% FBS and penicillin/streptomycin was used. […]
(§4) The medium was discarded, cells were washed twice with 200 mL of EDTA/PBS(−), 200 mL of EDTA/PBS(−) was further added, and the cells were stood still at room temperature for 20 min until they were released. The cells were recovered in four 50 mL tubes (Becton Dickinson, #352070), and centrifuged at 1,500 rpm for 10 min at 4° C. using a low speed cooling centrifuge (Hitachi, CF7D2). The supernatant was discarded, the pellets in the four tubes were suspended in 10 mL of PBS(−), and combined in one tube (Becton Dickinson, #352070). The mixture was further centrifuged at 1,500 rpm for 10 min at 4° C., and the obtained pellets were suspended in 20 mL of ice-cooled homogenizing buffer [10 mM NaHCO3, 5 mM EDTA, Protease inhibitor Complete (Roche), pH 7.4]. The cell suspension was homogenized 3 times using a polytron homogenizer at 20,000 rpm for 30 sec. The obtained homogenate was centrifuged (2,000 rpm, 10 min, 4° C.) using a low speed cooling centrifuge. The supernatant was recovered in an ultracentrifugation tube and ultracentrifuged (40,000 rpm, 60 min, 4° C.) using an ultracentrifuge (Beckman, L-90K). To the obtained pellets was added a suspending buffer [50 mM Tris-HCl, 1 mM EDTA, Protease inhibitor Complete (Roche), pH 7.4], and the pellets were suspended by pipetting. The protein concentration of this suspension was measured, diluted to 2 mg/mL to give cellular membrane fractions of CHO-hMelR7 and CHO-hMT2 cells. The membrane fractions were dispensed to 1.5 mL tubes (Eppendorf, #0030120.086) by 100 μL, preserved in a freezer (−80° C.) and used for a binding assay. Protein was quantified using BCA protein assay kit (Pierce) with BSA as the standard.
(§5) (4) Preparation of Membrane Fraction Suspension
(§6) Immediately before use, the membrane fractions of CHO-hMelR7 and CHO-hMT2 cells of the above-mentioned (3) were diluted 20-fold with assay buffer (50 mM Tris-HCl, pH 7.7).
(§7) (5) Preparation of 2-[^125I] Iodomelatonin Solution
(§8) 2-[^125I] Iodomelatonin (#NEX236, PerkinElmer) was diluted with the assay buffer to 400 pM for MT1 and 1 nM for MT2.
The assay buffer (80 μL) of the above-mentioned (4) was added to each well of a 96-well plate (type 3363, Corning). Then, a test compound (compound solution diluted with DMSO to 200-fold of the final measurement concentration) was added by 2 μL. […]

The target in data set [2] is T2, human melatonin 2 receptors (human MT2 receptors) (Homo sapiens, UniProt P49286).
T2 construct: expressed in transfected cells; membrane fraction
T2 sequence (P49286 1-362): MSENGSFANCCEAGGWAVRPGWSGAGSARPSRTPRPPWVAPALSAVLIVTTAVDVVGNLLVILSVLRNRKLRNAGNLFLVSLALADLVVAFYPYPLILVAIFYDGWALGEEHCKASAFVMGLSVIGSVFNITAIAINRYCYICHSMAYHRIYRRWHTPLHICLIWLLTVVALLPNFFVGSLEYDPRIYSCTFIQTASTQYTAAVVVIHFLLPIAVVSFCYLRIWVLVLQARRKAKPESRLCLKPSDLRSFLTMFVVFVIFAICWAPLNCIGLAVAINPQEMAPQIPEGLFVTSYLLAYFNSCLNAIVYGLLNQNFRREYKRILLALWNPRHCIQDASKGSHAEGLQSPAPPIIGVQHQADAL
As to the kind of experiment: Melatonin receptor binding inhibitory test, 2-[125I] Iodomelatonin, MT2. Conditions: membrane fraction of CHO-hMT2 cells, 25° C. for 2.5 hr, read-out: binding inhibitory activity as IC50 value for MT2. How it is done: as §1
(2) Preparation of CHO-hMT2 Cells Expressing Human Melatonin 2 Receptors
A cDNA fragment (SEQ ID NO: 2) encoding full-length of human melatonin 2 receptors (human MT2 receptors) was incorporated into expression vector pCMV-Script (Stratagene, #212220) to give the plasmid that was pCMV-human MT2 receptors expression vector for animal cell expression. CHO-K1 cells (ATCC, #CCL-61) were plated at the concentration of 1.5×10^5 cells/cm^2 in a 6 well plate (ASAHI TECHNO GLASS), and cultured under the conditions of 37° C., 5% CO2 for 24 hr. For gene transfection, solution obtained by blending pCMV-human MT2 receptors expression vector (1.9 μg), Lipofectamine Transfection Reagent (Invitrogen, #18324-012) (11.3 μL) and Minimum Essential Medium Eagle (MEM) medium (Sigma, M8042) (93.8 μL), and reacting at room temperature for 20 min was added to the cells per one well. The transfected cells were cultured in MEM medium containing 10% FBS (Life Technology) and 300 μg/mL Geneticin (GIBCO, #10131), and the cell line that stably expressed the plasmid gene was selected. By a receptor binding assay using 2-[^125I] Iodomelatonin, CHO-hMT2 cell line showing specific binding of 2-[^125I] Iodomelatonin was selected from the obtained clones.
as §2, §3, §4, §5, §6, §7, §8
The assay buffer (80 μL) of the above-mentioned (4) was added to each well of a 96-well plate (type 3363, Corning). […]

T1 sequence (P48039 whole entry): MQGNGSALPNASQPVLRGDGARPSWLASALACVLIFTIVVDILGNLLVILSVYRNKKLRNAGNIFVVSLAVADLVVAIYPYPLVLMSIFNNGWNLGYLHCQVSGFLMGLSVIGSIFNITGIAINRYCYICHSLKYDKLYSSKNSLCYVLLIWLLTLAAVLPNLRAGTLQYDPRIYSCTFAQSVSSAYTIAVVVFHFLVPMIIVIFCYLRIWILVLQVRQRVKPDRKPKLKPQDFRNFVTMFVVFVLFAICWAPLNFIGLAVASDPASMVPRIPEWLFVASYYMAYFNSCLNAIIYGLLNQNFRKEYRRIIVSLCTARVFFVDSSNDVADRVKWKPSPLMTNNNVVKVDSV

What is called IC50 is the midpoint of a concentration-inhibition curve. What is called melting point is the temperature, or range, at which the solid turns liquid. In turn, `CC(=O)NCC1CC1c1cccc2nc(C)sc12` (stereo not drawn) [Example 58, N-{[2-(2-methyl-1,3-benzothiazol-7-yl)cyclopropyl]methyl}acetamide] returned a melting point of 96 to 98 °C. Moreover, the concentration for half-maximal inhibition (IC50) in data set [1] was at most 100 nM. In addition, the IC50 in data set [2] was at most 100 nM.

Turning to `CC(=O)NC[C@@H]1C[C@H]1c1cccc2nn(C)c(F)c12` (relative stereo) [Example 18, trans-N-{[2-(3-fluoro-2-methyl-2H-indazol-4-yl)cyclopropyl]methyl}acetamide], the melting point is 109 to 111 °C. The 50% inhibitory concentration (IC50) in data set [1] was at most 100 nM. In addition, the IC50 in data set [2] is at most 100 nM.

In the case of `Cc1cc2c([C@@H]3C[C@H]3CNC(=O)C3CC3)cccn2n1` (relative stereo) [Example 47, trans-N-{[2-(2-methylpyrazolo[1,5-a]pyridin-4-yl)cyclopropyl]methyl}cyclopropanecarboxamide], the melting point was 133 to 135 °C. The half-maximal inhibitory concentration (IC50) in data set [1] was at most 100 nM. Besides, in data set [2], the IC50 is at most 100 nM.

For the compound `CCC(=O)NCC1CC1c1cccc2nnsc12` (stereo not drawn) [Example 61, N-{[2-(1,2,3-benzothiadiazol-7-yl)cyclopropyl]methyl}propanamide], the melting point lay in the range of 67 to 69 °C. Moreover, in data set [1], the half-inhibitory concentration (IC50) was at most 100 nM. Moreover, the half-inhibitory concentration (IC50) in data set [2] is at most 100 nM.

With `CC(=O)NC[C@H]1C[C@@H]1c1cccn2nc(C)cc12` [Example 43, N-{[(1S,2S)-2-(2-methylpyrazolo[1,5-a]pyridin-4-yl)cyclopropyl]methyl}acetamide], the melting point lay within 69 to 70 °C. Also, the IC50 in data set [1] is at most 100 nM. In data set [2], the IC50 was at most 100 nM.

`CC(=O)NC[C@@H]1C[C@H]1c1cccn2nc(C)cc12` (relative stereo) [Example 5, trans-N-{[2-(2-methylpyrazolo[1,5-a]pyridin-4-yl)cyclopropyl]methyl}acetamide] came in with a melting point of 114 to 115 °C. The half-maximal inhibitory concentration (IC50) in data set [1] is at most 100 nM. For the same compound, the IC50 in data set [2] was at most 100 nM.

Turning to `CC(=O)NCC1CC1c1ccc(F)c2nn(C)cc12` (stereo not drawn) [Example 38, N-{[2-(7-fluoro-2-methyl-2H-indazol-4-yl)cyclopropyl]methyl}acetamide], the melting point lay in the range of 147 to 148 °C. For the same compound, in data set [1], the half-inhibitory concentration (IC50) was at most 100 nM. Besides, the IC50 in data set [2] is at most 100 nM.

With `Cc1cc2c([C@H]3C[C@@H]3CNC(=O)C3CC3)cccn2n1` [Example 48, N-{[(1S,2S)-2-(2-methylpyrazolo[1,5-a]pyridin-4-yl)cyclopropyl]methyl}cyclopropanecarboxamide], the melting point lay within 124 to 128 °C. Moreover, the IC50 in data set [1] is at most 100 nM. The IC50 in data set [2] is at most 100 nM.

For `CC(=O)NCC1CC1c1c(Cl)ccc2nn(C)cc12` (stereo not drawn) [Example 27, N-{[2-(5-chloro-2-methyl-2H-indazol-4-yl)cyclopropyl]methyl}acetamide], the melting point was in the range of 149 to 150 °C. In addition, in data set [1], the IC50 was at most 100 nM. In data set [2], the IC50 is at most 100 nM.

As for `CCn1cc2c(C3CC3CNC(C)=O)cccc2n1` (stereo not drawn) [Example 16, N-{[2-(2-ethyl-2H-indazol-4-yl)cyclopropyl]methyl}acetamide], the melting point was 155 to 159 °C. For the same compound, in data set [1], the concentration for half-maximal inhibition (IC50) was at most 100 nM. Further, the IC50 in data set [2] was at most 100 nM.

Turning to `CC(=O)NCC1CC1c1cccc2nnsc12` (stereo not drawn) [Example 60, N-{[2-(1,2,3-benzothiadiazol-7-yl)cyclopropyl]methyl}acetamide], the melting point is 81 to 82 °C. For the same compound, the IC50 in data set [1] is at most 100 nM. Besides, the IC50 in data set [2] is at most 100 nM.

Compound `CC(=O)NC[C@H]1C[C@@H]1c1c(F)ccc2nn(C)cc12` [Example 24, N-{[(1S,2S)-2-(5-fluoro-2-methyl-2H-indazol-4-yl)cyclopropyl]methyl}acetamide] gave a melting point of 120 °C. In data set [1], the half-maximal inhibitory concentration (IC50) was at most 100 nM. For the same compound, the half-inhibitory concentration (IC50) in data set [2] is at most 100 nM.

Take `CCC(=O)NCC1CC1c1cccc2nn(CC)cc12` (stereo not drawn) [Example 17, N-{[2-(2-ethyl-2H-indazol-4-yl)cyclopropyl]methyl}propanamide]: the melting point was 114 to 115 °C. In addition, the concentration for half-maximal inhibition (IC50) in data set [1] is at most 100 nM. Further, the half-inhibitory concentration (IC50) in data set [2] is at most 100 nM.

In turn, `CC(=O)NCC1CC1c1c(Br)ccc2nn(C)cc12` (stereo not drawn) [Example 29, N-{[2-(5-bromo-2-methyl-2H-indazol-4-yl)cyclopropyl]methyl}acetamide] displayed a melting point of 135 to 137 °C. Further, the IC50 in data set [1] is at most 100 nM. Besides, in data set [2], the half-inhibitory concentration (IC50) was at most 100 nM.

On to `CCc1ccc2nn(C)cc2c1C1CC1CNC(C)=O` (stereo not drawn) [Example 32, N-{[2-(5-ethyl-2-methyl-2H-indazol-4-yl)cyclopropyl]methyl}acetamide], for which the IC50 in data set [1] and in data set [2] was at most 100 nM each time.

With `CCC(=O)NCC1CC1c1cccn2nc(C)nc12` (stereo not drawn) [Example 4, N-{[2-(2-methyl[1,2,4]triazolo[1,5-a]pyridin-8-yl)cyclopropyl]methyl}propanamide], the 50% inhibitory concentration (IC50) in data set [1] and in data set [2] was at most 100 nM each time.

For `CC(=O)NCC1CC1c1cccn2nc(C)nc12` (stereo not drawn) [Example 3, N-{[2-(2-methyl[1,2,4]triazolo[1,5-a]pyridin-8-yl)cyclopropyl]methyl}acetamide], the melting point was 116 to 118 °C. Besides, in data set [1], the half-inhibitory concentration (IC50) is at most 100 nM.
